Data: patent publication US20190374566A1, “COMPOSITION FOR PREVENTING AND TREATING ARTHRITIS, INCLUDING DNA FRAGMENT MIXTURE AND MATRIX METALLOPROTEINASE PRODUCTION INHIBITOR” (BR PHARM CO., LTD., priority 2018, published 2019)

Experiments:
Format in all cases: cell-based, human
MMP-13 [1] = experiment: MMP-13 expression (ELISA) in 3D cultured SW-1353 cells stimulated with IL-β; conditions: 3D SW-1353, 10 mM of inhibitor together with 0, 10, 100 and 1000 μl/ml DNA fragment mixture, IL-β 10 ng/ml
Experimental: (§1) SW-1353 cells were grown on a 3D collagen […] with or without a DNA fragment mixture (polydeoxyribonucleotides (PDRN), 450 kDa, sterilized, BR Pharm Co, Wonju, South Korea). SW-1353 cells were harvested from the 2D culture, and the cells in the medium were counted. Next, the cells were spun down and cooled. For use of the DNA fragment mixture as an extracellular matrix (ECM) additive to 3D chondrocytes, 10 mg/ml of the DNA fragment mixture was dissolved in 10× PBS and diluted with 10× PBS at concentrations of 0 μg/ml, 10 μg/ml, 100 μg/ml and 1000 μg/ml. 10× PBS, containing different concentrations of the DNA fragment mixture, and rat tail collagen I solution diluted with DMEM at a concentration of 4 mg/ml, were mixed at a ratio of 1:10, and the mixture was adjusted to a pH of 7.0-7.4 with NaOH. Thereafter, the cells were carefully shaken to avoid air bubbles from entering the collagen solution. 2 μl of the solution was added to each well to construct a 3D gel-cell. The gel was kept in an incubator (37° C. and 5% CO2) for 45 minutes, and the 3D gel-cell matrix was exposed to serum-free medium for 48 hours. For drug screening from the DNA fragment mixture, the DNA fragment mixture was treated with serum-free medium after the SW-1353 cells were sufficiently grown.
(§2) SW-1353 cells were treated with 10-1000 μg/ml of the DNA fragment mixture and 0.1-10 mM of each of glucosamine (GLN), N-acetyl-D-glucosamine (NAG), alliin, sodium butyrate (SB) and chondroitin sulfate (CS) for 24 hours, and stimulated with 10 ng/ml of IL-β for analysis of MMP expression therein.
(§3) To evaluate MMP expression, IL-β was dissolved in serum-free DMEM medium and used at a final concentration of 10 ng/ml. The cells were cultured at 37° C. under 5% CO2. The cell culture supernatant was collected, centrifuged, and then stored at −80° C. until use in the experiment. The amounts of MMP-3 and MMP-13 in the culture supernatant were measured using commercially available ELISA (enzyme-linked immunosorbent assays) according to the manufacturer's protocol.
(§4) During 3D cell culture, chondrocytes were cultured in 10% serum-containing medium or serum-free medium, and the cultured chondrocytes were stimulated with IL-β (10 ng/ml).
(§5) In addition, after 24 hours of treatment with the DNA fragment mixture and IL-β in serum-free medium, two markers (MMP-3 and MMP-13) which are frequently involved in degenerative arthritis disease were analyzed.

MMP-13 [2] = experiment: MMP-13 expression (ELISA of culture supernatant) in 2D cultured SW-1353 cells stimulated with IL-β; conditions: 2D SW-1353, 10 mM of inhibitor together with 0, 10, 100 and 1000 μl/ml DNA fragment mixture, IL-β 10 ng/ml
Experimental: (§6) The human chondrosarcoma cell line SW-1353 (HTB-94, ATCC, Mansassas, Va., USA) was cultured in DMEM (Dulbecco Modified Eagle's medium) supplemented with 10% FBS (fetal bovine serum) and 1% antibiotic-antifungal agent. An incubator for cell culture was kept at 37° C. under 5% CO2. For cell culture, cells were seeded into a culture flask at a density of 1.2×10^4 cells/cm^2. When a confluence of 80-90% was reached, the cells were trypsinized. The cells were subcultured 9 times before use in the experiment.
as §2, §3
(§7) Cells of test groups were cultured with 10 ng/ml of IL-β under the same conditions as those of the control group.

MMP-3 [3] = experiment: MMP-3 expression (ELISA of culture supernatant) in 2D cultured SW-1353 cells stimulated with IL-β; conditions: 2D SW-1353, 10 mM of inhibitor together with 0, 10, 100 and 1000 μg/ml DNA fragment mixture, IL-β 10 ng/ml
Experimental: as §6, §2, §3, §7

MMP-3 [4] = experiment: MMP-3 expression (ELISA) in 3D cultured SW-1353 cells stimulated with IL-β; conditions: 3D SW-1353, 10 mM of inhibitor together with 0, 10, 100 and 1000 μg/ml DNA fragment mixture, IL-β 10 ng/ml
Experimental: as §1, §2, §3, §4, §5

CCCC(=O)[O-].[Na+] [sodium butyrate]
decreased: expression level of MMP-13 protein (MMP-13 [1]) | expression level of MMP-13 protein (MMP-13 [2]) | expression level of MMP-3 protein (MMP-3 [3]) | expression level of MMP-3 protein (MMP-3 [4])

alliin
decreased: expression level of MMP-13 protein (MMP-13 [1]) | expression level of MMP-13 protein (MMP-13 [2]) | expression level of MMP-3 protein (MMP-3 [3]) | expression level of MMP-3 protein (MMP-3 [4])

N[C@H]1C(O)O[C@H](CO)[C@@H](O)[C@@H]1O (some centres unmarked) [glucosamine]
decreased: expression level of MMP-13 protein (MMP-13 [1]) | expression level of MMP-13 protein (MMP-13 [2]) | expression level of MMP-3 protein (MMP-3 [3]) | expression level of MMP-3 protein (MMP-3 [4])

CC(=O)N[C@H]1C(O)O[C@H](CO)[C@@H](O)[C@@H]1O (stereo partly drawn) [N-acetyl-D-glucosamine]
decreased: expression level of MMP-13 protein (MMP-13 [1]) | expression level of MMP-13 protein (MMP-13 [2]) | expression level of MMP-3 protein (MMP-3 [3]) | expression level of MMP-3 protein (MMP-3 [4])

chondroitin sulfate
decreased: expression level of MMP-13 protein (MMP-13 [1]) | expression level of MMP-13 protein (MMP-13 [2]) | expression level of MMP-3 protein (MMP-3 [3]) | expression level of MMP-3 protein (MMP-3 [4])
